The values below come from US8969554B2, “6-acyl-1,2,4-triazine-3,5-dione derivative and herbicides” (Kumiai Chemical Industry Co., Ltd., priority 2010, dated 2015).

Holding throughout (format): in vivo
Design in all cases: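 index 0 to 10 in 10% steps of herbicidal effect with 10 meaning complete death and 0 below 10%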

The test system of test [1] is Echinochloa crus-galli. Briefly: Herbicidal activity by field foliage treatment (Test example 3). Particulars: 1000 g effective component per hectare, day 14 after the treatment. The method, then:
(§1) Test example 3 Test for Determining Herbicidal Activity by Field Foliage Treatment A 80 cm^2 wide plastic pot was filled with a field soil and seeds of each of Indian millet and A. retroflexus were sowed and then incubated for 2 weeks in a green house. The wettable powder produced with reference to the Formulation example 1 was diluted water, and applied from the air to entire body of the plant as foliage treatment by using a small sprayer in an amount of 1000 liters per hectare so that the effective component is 1000 g per hectare. After that, the plants were cultivated in a greenhouse, and on day 14 after the treatment, evaluation was made by the criteria described in Table 72 for determining the herbicidal effects.

Test [2] concerns A. retroflexus. The test is described as above. The note with it: 1000 g effective component per hectare, day 14 after the treatment. On the procedure:
as §1, with “[table]” for “Test example 3”

Test [3] has as its system Indian millet. The test is described as above. Particulars: 1000 g effective component per hectare, day 14 after the treatment. The method, then: as §1, with “[table]” for “Test example 3”
The test system of test [4] is Scirpus juncoides Rocxb. Briefly: Herbicidal activity by paddy field soil treatment (Test Example 1). The note with it: applied on water surface, 1000 g of effective component per hectare, day 21 after the treatment. The method, then: (§2) Test for Determining Herbicidal Activity by Paddy Field Soil Treatment A 100 cm^2 wide plastic pot was filled with a paddy field soil and, after watering and shuffling, seeds of each of Echinochloa oryzicola, Monochoria vaginalis, and Scirpus juncoides Rocxb. were sowed and watered to a depth of 3 cm. On the next day, the wettable powder obtained in view of Formulation example 1 was diluted with water and applied on water surface. The application amount was 1000 g of effective component per hectare. After that, the plants were cultivated in a greenhouse, and on day 21 after the treatment, evaluation was made by the criteria of Table 72 for determining the herbicidal effects. [table]

The subject of test [5] is Monochoria vaginalis. Described as above. The note with it: 1000 g of effective component per hectare, evaluated on day 21 after the treatment, criteria of Table 72. On the procedure: as §2
Test [6] relates to A. retroflexus. Briefly: Herbicidal activity by field soil treatment (Test example 2). Particulars: 1000 g effective component per hectare, day 21 after the treatment. The method, then:
(§3) [table] Test for Determining Herbicidal Activity by Field Soil Treatment A 80 cm^2 wide plastic pot was filled with a field soil and seeds of each of Echinochloa crus-galli, foxtail, Indian millet, and A. retroflexus were sowed and then covered with soil. The wettable powder produced with reference to the Formulation example 1 was diluted water, and applied on the soil surface by using a small sprayer in an amount of 1000 liters per hectare so that the effective component is 1000 g per hectare. After that, the plants were cultivated in a greenhouse, and on day 21 after the treatment, evaluation was made by the criteria described in Table 72 for determining the herbicidal effects.

The test system of test [7] is Echinochloa oryzicola. Briefly: Herbicidal activity by paddy field soil treatment (Test Example 1). The note with it: 1000 g of effective component per hectare, evaluated on day 21 after the treatment, criteria of Table 72. The method, then: as §2
In test [8] the test system is Indian millet. Briefly: Herbicidal activity by field soil treatment (Test example 2). Particulars: 1000 g effective component per hectare, day 21 after the treatment. On the procedure: as §3

Take `Cc1cc(C)nc(-n2c(=O)c(C(=O)O)nn(C)c2=O)n1` [V-360]: the “herbicidal effect index, Echinochloa crus-galli” value in test [1] worked out at 8. Moreover, in test [2], the “herbicidal effect index, Amaranthus retroflexus” value was found to be 10. In addition, the “herbicidal effect index, Abutilon theophrasti” value in test [3] is 7. Moreover, in test [4], the “herbicidal effect index, S. juncoides Rocxb.” value was 10. In addition, the “Herbicidal effects index number, Monochoria vaginalis” value in test [5] amounted to 10.

Consider `CCCCCn1nc(C(=O)C2=C(O)CCCC2=O)c(=O)n(-c2ccccc2)c1=O` [I-308], for which the “herbicidal effect index, Amaranthus retroflexus” value in test [6] is 10. The “herbicidal effect index, Abutilon theophrasti” value in test [3] worked out at 8. Also, the “Herbicidal effects index number, Monochoria vaginalis” value in test [5] turned out to be 8.

For `Cc1cc(C)c(-n2c(=O)c(C(=O)O)nn(C)c2=O)c(C)c1` [V-366], in test [2], the “herbicidal effect index, Amaranthus retroflexus” value is recorded as 10. Moreover, in test [3], the “herbicidal effect index, Abutilon theophrasti” value is 7. Moreover, the “herbicidal effect index, S. juncoides Rocxb.” value in test [4] is reported as 8. Besides, the “Herbicidal effects index number, Monochoria vaginalis” value in test [5] was 10.

As to `Cn1nc(C(=O)C2=C(O)CCCC2=O)c(=O)n(-c2cc(Cl)c(S(C)(=O)=O)c(Cl)c2)c1=O` [I-301], the “herbicidal effect index, Amaranthus retroflexus” value in test [2] was 10. Besides, the “herbicidal effect index, Abutilon theophrasti” value in test [3] came to 7. In addition, the “herbicidal effect index, S. juncoides Rocxb.” value in test [4] is recorded as 10. In test [7], the “Herbicidal effects index number, Echinochloa oryzicola” value came out at 10. Moreover, the “Herbicidal effects index number, Monochoria vaginalis” value in test [5] worked out at 10.

Take `CN(c1ccccc1)n1c(=O)c(C(=O)O)nn(C)c1=O` [V-359]: in test [2], the “herbicidal effect index, Amaranthus retroflexus” value stood at 10. The “herbicidal effect index, Abutilon theophrasti” value in test [3] was determined as 10. Also, the “herbicidal effect index, S. juncoides Rocxb.” value in test [4] came to 10. Also, the “Herbicidal effects index number, Echinochloa oryzicola” value in test [7] amounted to 8. For the same compound, the “Herbicidal effects index number, Monochoria vaginalis” value in test [5] worked out at 10.

As to `Cc1cc(C)c(-n2c(=O)c(C(=O)C3=C(O)CCCC3=O)nn(C)c2=O)c(C)c1` [I-472], the “herbicidal effect index, Amaranthus retroflexus” value in test [2] was found to be 10. Also, the “herbicidal effect index, Abutilon theophrasti” value in test [3] is given as 7. In test [4], the “herbicidal effect index, S. juncoides Rocxb.” value came out at 8. Also, the “Herbicidal effects index number, Monochoria vaginalis” value in test [5] turned out to be 10.

As for `Cn1nc(C(=O)O)c(=O)n(-c2c(F)c(F)c(F)c(F)c2F)c1=O` [V-367], the “herbicidal effect index, Abutilon theophrasti” value in test [3] is 10. In addition, the “herbicidal effect index, S. juncoides Rocxb.” value in test [4] amounted to 8. In test [7], the “Herbicidal effects index number, Echinochloa oryzicola” value worked out at 8. Further, the “Herbicidal effects index number, Monochoria vaginalis” value in test [5] was determined as 10.

As to `Cn1ncc(C(=O)c2nn(C)c(=O)n(-c3ccccc3)c2=O)c1O` [II-50, 6-(5-hydroxy-1-methyl-1H-pyrazole-4-carbonyl)-2-methyl-4-phenyl-1,2,4-triazine-3,5 (2H, 4H)-dione], the “herbicidal effect index, Amaranthus retroflexus” value in test [2] turned out to be 10. In addition, the “herbicidal effect index, Abutilon theophrasti” value in test [3] turned out to be 8. Also, in test [4], the “herbicidal effect index, S. juncoides Rocxb.” value was found to be 7. Further, in test [5], the “Herbicidal effects index number, Monochoria vaginalis” value was found to be 8.

`COc1cccc(-n2c(=O)c(C(=O)O)nn(C)c2=O)c1` [V-61]: in test [8], the “herbicidal effect index, Abutilon theophrasti” value was 8.

Consider `Cn1nc(C(=O)C2=C(O)CCCC2=O)c(=O)n(Cc2ccccc2)c1=O` [I-205], for which the “herbicidal effect index, Amaranthus retroflexus” value in test [2] is 10. Moreover, the “herbicidal effect index, Abutilon theophrasti” value in test [3] stood at 10. Further, in test [4], the “herbicidal effect index, S. juncoides Rocxb.” value is given as 10. The “Herbicidal effects index number, Echinochloa oryzicola” value in test [7] is 7. Further, the “Herbicidal effects index number, Monochoria vaginalis” value in test [5] was determined as 10.

Turning to `COc1ccc(-n2c(=O)c(C(=O)C3=C(O)CCCC3=O)nn(C)c2=O)cc1` [Compound I-62], the “herbicidal effect index, Amaranthus retroflexus” value in test [2] was determined as 10. Further, the “herbicidal effect index, Abutilon theophrasti” value in test [3] was found to be 9. For the same compound, the “Herbicidal effects index number, Monochoria vaginalis” value in test [5] was found to be 8.

Take `Cc1ccc(-n2c(=O)c(C(=O)O)nn(C)c2=S)nc1` [V-291]: the “Herbicidal effects index number, Monochoria vaginalis” value in test [5] amounted to 8.

As to `CCCCn1c(=O)c(C(=O)C2=C(O)CCCC2=O)nn(-c2ccccn2)c1=O` [I-306], the “herbicidal effect index, Amaranthus retroflexus” value in test [6] came out at 10; in test [2], 7. For the same compound, the “herbicidal effect index, Abutilon theophrasti” value in test [8] worked out at 7; in test [3], 9. The “Herbicidal effects index number, Monochoria vaginalis” value in test [5] amounted to 9.

Regarding `Cn1nc(C(=O)C2=C(O)CCCC2=O)c(=O)n(-c2c(F)c(F)c(F)c(F)c2F)c1=O` [I-473], the “herbicidal effect index, Amaranthus retroflexus” value in test [2] worked out at 3. The “herbicidal effect index, Abutilon theophrasti” value in test [3] amounted to 10. Further, the “herbicidal effect index, S. juncoides Rocxb.” value in test [4] was determined as 8. In addition, the “Herbicidal effects index number, Echinochloa oryzicola” value in test [7] worked out at 8. Moreover, in test [5], the “Herbicidal effects index number, Monochoria vaginalis” value is reported as 10.

Turning to `Cc1cc(C)nc(-n2c(=O)c(C(=O)C3=C(O)CCCC3=O)nn(C)c2=O)n1` [I-467], the “herbicidal effect index, Echinochloa crus-galli” value in test [1] was 8. Besides, the “herbicidal effect index, Amaranthus retroflexus” value in test [2] stood at 10. In test [3], the “herbicidal effect index, Abutilon theophrasti” value turned out to be 7. In addition, in test [4], the “herbicidal effect index, S. juncoides Rocxb.” value was determined as 10. For the same compound, the “Herbicidal effects index number, Monochoria vaginalis” value in test [5] is given as 10.

As to `CN(c1ccccc1)n1c(=O)c(C(=O)C2=C(O)CCCC2=O)nn(C)c1=O` [I-466], the “herbicidal effect index, Amaranthus retroflexus” value in test [2] came out at 10. The “herbicidal effect index, Abutilon theophrasti” value in test [3] is reported as 10. In test [4], the “herbicidal effect index, S. juncoides Rocxb.” value amounted to 10. For the same compound, the “Herbicidal effects index number, Echinochloa oryzicola” value in test [7] amounted to 8. Moreover, in test [5], the “Herbicidal effects index number, Monochoria vaginalis” value stood at 10.

With `C=Cc1ccc(-n2c(=O)c(C(=O)C3=C(O)CCCC3=O)nn(C)c2=O)nc1` [I-293], the entries for the “herbicidal effect index, Abutilon theophrasti” value in test [8] and in test [3] were 10 and 8, respectively. Besides, the “herbicidal effect index, Amaranthus retroflexus” value in test [2] was 10. The “herbicidal effect index, S. juncoides Rocxb.” value in test [4] came to 10. The “Herbicidal effects index number, Monochoria vaginalis” value in test [5] is on record as 10.

With `Cn1nc(C(=O)C2=C(O)CCCC2=O)c(=O)n(CS(C)(=O)=O)c1=O` [Compound I-47], the “herbicidal effect index, Amaranthus retroflexus” value in test [6] and in test [2] was 10 throughout. In addition, in test [3], the “herbicidal effect index, Abutilon theophrasti” value is 9. Moreover, the “herbicidal effect index, S. juncoides Rocxb.” value in test [4] is 10. Also, in test [5], the “Herbicidal effects index number, Monochoria vaginalis” value turned out to be 10.

`Cn1nc(C(=O)C2=C(O)CCCC2=O)c(=O)n(N2CCS(=O)(=O)CC2)c1=O` [I-204]: the “herbicidal effect index, Amaranthus retroflexus” value in test [2] is recorded as 7. In test [5], the “Herbicidal effects index number, Monochoria vaginalis” value is reported as 8.

`CCCCCCCCn1c(=O)c(C(=O)C2=C(O)CCCC2=O)nn(C)c1=O` [I-295]: the “herbicidal effect index, Amaranthus retroflexus” value in test [2] is 8. In addition, in test [3], the “herbicidal effect index, Abutilon theophrasti” value worked out at 9.

For `CCCS(=O)(=O)Oc1c(C(=O)c2nn(C)c(=O)n(-c3ccccc3)c2=O)cnn1C(C)C` [II-267, 1-isopropyl-4-(2-methyl-3,5-dioxo-4-phenyl-2,3,4,5-tetrahydro-1,2,4-triazine-6-ylcarbonyl)-1H-pyrazole-5-yl propane-1-sulfonate], the “herbicidal effect index, Abutilon theophrasti” value in test [3] is reported as 9. Also, the “Herbicidal effects index number, Monochoria vaginalis” value in test [5] was 8.

On to `O=C1CCCC(O)=C1C(=O)c1nn(-c2ccccc2)c(=O)n(-c2ccccc2)c1=O` [I-262], for which, in test [5], the “Herbicidal effects index number, Monochoria vaginalis” value is reported as 8.

For the compound `Cn1nc(C(F)(F)F)cc1-n1c(=O)c(C(=O)C2=C(O)CCCC2=O)nn(C)c1=O` [I-272], the “herbicidal effect index, Echinochloa crus-galli” value in test [1] came to 6. Also, the “herbicidal effect index, Amaranthus retroflexus” value in test [6] is given as 8; in test [2] it was 10. Also, in test [3], the “herbicidal effect index, Abutilon theophrasti” value is 9. Further, the “herbicidal effect index, S. juncoides Rocxb.” value in test [4] is given as 8. Also, the “Herbicidal effects index number, Echinochloa oryzicola” value in test [7] came to 7. The “Herbicidal effects index number, Monochoria vaginalis” value in test [5] was 8.
